From patent US20030119895A1, “Methods using a combination of a 3-heteroaryl-2-indolinone and a cyclooxygenase-2 inhibitor for the treatment of neoplasia” (Pharmacia Corporation, priority 1998, published 2003)
Values joined by “and” are separate entries in the source; they are usually repeats but may differ in a detail not shown here. Equal values may be shown once.

Key:
FGFR = assay: FGF ligand-induced BrdU incorporation, mitogenesis in 3T3/EGFR cells; assay type: cell-based
[1] = tested on: HUV-EC-C cells (human umbilical vein endothelial cells); assay: HUV-EC-C Assay, VEGF-stimulated [3H] thymidine incorporation; assay type: cell-based; conditions: Mitogenesis in Endothelial Cells
[2] = tested on: HUV-EC-C cells (human umbilical vein endothelial cells); assay: HUV-EC-C Assay, a-FGF (ECGF)-stimulated [3H] thymidine incorporation; assay type: cell-based; conditions: Mitogenesis in Endothelial Cells
Procedure: The following protocol may also be used to measure the composition's activity:
1. […] After cells have detached from the flask, add an equal volume of assay medium and transfer to a 50 ml sterile centrifuge tube (Fisher Scientific; catalogue no. 05-539-6).
2. Wash the cells with about 35 ml assay medium in the 50 ml sterile centrifuge, tube by adding the assay medium, centrifuge for 10 minutes at approximately 200× g, aspirate the supernatant, and resuspend with 35 ml D-PBS. Repeat the wash two more times with D-PBS, resuspend the cells in about 1 ml assay medium/15 cm^2 of tissue culture flask. Assay medium consists of F12K medium (Gibco BRL; catalogue no. 21127-014)+0.5% heat-inactivated fetal bovine serum. Count the cells with a Coulter Counter.RTM.v Coulter Electronics, Inc.) and add assay medium to the cells to obtain a concentration of 0.8-1.0×10^5 cells/ml.
3. Add cells to 96-well flat-bottom plates at 100 μl/well or 0.8-1.0×10^4 cells/well; incubate about 24 h at 37° C., 5% CO2.
1. Make up two-fold drug titrations in separate 96-well plates, generally 50 μM on down to 0 μM. Use the same assay medium as mentioned in day 0, step 2 above. Titrations are made by adding […] of drug at 200 μM (4× the final well concentration) to the top well of a particular plate column. Since the stock drug concentration is usually 20 mM in DMSO, the 200 μM drug concentration contains 2% DMSO. Therefore, diluent made up to 2% DMSO in assay medium (F12K+0.5% fetal bovine serum) is used as diluent for the drug titrations in order to dilute the drug but keep the DMSO concentration constant. Add this diluent to the remaining wells in the column at 60 μl/well. Take 60 μl from the 120 μl of 200 μM drug dilution in the top well of the column and mix with the 60 μl in the second well of the column. Take 60 μl from this well and mix with the 60 μl in the third well of the column, and so on until two-fold titrations are completed. When the next-to-the-last well is mixed, take 60 μl of the 120 μl in this well and discard it. Leave the last well with 60 μl of DMSO/media diluent as a non-drug-containing control. Make 9 columns of titrated drug, enough for triplicate wells each for 1) VEGF (obtained from Pepro Tech Inc., catalogue no. 100-200, 2) endothelial cell growth factor (ECGF) (also known as acidic fibroblast growth factor, or aFGF) (obtained from Boehringer Mannheim Biochemica, catalogue no. 1439 600), and assay media control. ECGF comes as a preparation with sodium heparin.
2. Transfer 50 μl/well of the drug dilutions to the 96-well assay plates containing the 0.8-1.0×10^4 cells/100 μl/well of the HUV-EC-C cells from day 0 and […] incubate ~2 h at 37° C., 5% CO2.
3. In triplicate, add 50 μl/well of 80 ng/ml VEGF, 20 ng/ml ECGF, or media control to each drug condition. As with the drugs, the growth factor concentrations are 4× the desired final concentration. Use the assay media from day 0 step 2 to make the concentrations of growth factors. Incubate approximately 24 hours at 37° C., 5% CO2. Each well will have 50 μl drug dilution, 50 μl growth factor or media, and 100 ul cells,=200 ul/well total. Thus the 4× concentrations of drugs and growth factors become 1× once everything has been added to the wells.
1. Add ^3H-thymidine (Amersham; catalogue no. TRK-686) at 1 μCi/well (10 μl/well of 100 μCi/ml solution made up in RPMI media+10% heat-inactivated fetal bovine serum) and incubate about 24 h at 37° C., 5% CO2.
Note: ^3H-thymidine is made up in RPMI media because all of the other applications for which we use the ^3H-thymidine involve experiments done in RPMI. The media difference at this step is probably not significant. RPMI was obtained from Gibco BRL, catalogue no. 11875-051.
1. Freeze plates overnight at −20° C.
1. Thaw plates and harvest with a 96-well plate harvester (Tomtec Harvester 96.RTM.) onto filter mats (Wallac; catalogue no. 1205-401); read counts on a Wallac Betaplate™ liquid scintillation counter.

EpH4-VEGF = assay: Xenograft Assay 2: FLK-1/Xenograft Model, subcutaneous xenograft (In Vivo Data, EpH4-VEGF); design: species or system mice
Procedure: Assay 2: FLK-1/Xenograft Model
The ability of the compounds of the present invention to inhibit ovarian, melanoma, prostate, lung and mammary tumor cell lines established as SC xenografts was examined. These studies were conducted using doses ranging from 1 to 75 mg/kg/day.
Materials And Methods. The tumor cells were implanted subcutaneously into the indicated strains of mice. Treatment was initiated on day 1 post implantation unless otherwise indicated (e.g. treatment of the SCID mouse related to the A375 melanoma cell line began on Day 9). Eight (8) to sixteen (16) mice comprised each test group.
Animals. Female athymic mice (BALB/c, nu/nu), BALB/c mice, Wistar rats and Fisher 344 rats were obtained from Simonsen Laboratories (Gilroy, Calif.). Female A/I mice were obtained from Jackson Laboratory (Bar Harbor, Me.). DA rats were obtained from B&K Universal, Inc. (Fremont, Calif.). Athymic R/Nu rats, DBA/2N mice, and BALB/c mice were obtained from Harlan Sprague Dawley (Indianapolis, Ind.). Female C57BU6 mice were obtained from Taconic (Germantown, N.Y.). All animals were maintained under clean-room conditions in Micro-isolator cages with Alpha-dri bedding. They received sterile rodent chow and water ad libitum.
All procedures were conducted in accordance with the NIH Guide for the Care and Use Of Laboratory Animals.
Subcutaneous Xenograft Model. Cell lines were grown in appropriate medium as described. Cells were harvested at or near confluency with 0.05% Trypsin-EDTA and pelleted at 450×g for 10 min. Pellets were resuspended in sterile PBS or media (without FBS) to a suitable concentration indicated in the Figure legends and the cells were implanted into the hindflank of mice. Tumor growth-was measured over 3 to 6 weeks using venier calipers and tumor volumes were calculated as a product of length x width x height unless otherwise indicated. P values were calculated using the Students' t-test.
Different concentrations of a compound in 50-100 μl excipient (dimethylsulfoxide, PBTE, PBTE6C:D5W, or PBTE:D5W) were delivered by IP injection.
Results for various compounds obtained from the above-described in vivo assays are set forth at Table 5, below: […]

| SMILES | IC50 (FGFR) [µM] | IC50 ([1]; Homo sapiens, HUVEC) [µM] | IC50 ([2]; Homo sapiens, HUVEC) [µM] | other results |
| --- | --- | --- | --- | --- |
| CCOC(=O)CCc1c(C=C2C(=O)Nc3ccccc32)[nH]c(C(=O)OCC)c1CC(=O)OCC [SU5465, 3-[(5-Ethoxycarbonyl-3-ethoxycarbonylethyl-4-ethoxylcarbonylmethylpyrrol-2-yl)methylene]-2-indolinone] | 25 | – | – | – |
| O=C1Nc2ccccc2C1=Cc1c[nH]cn1 [SU5473, 3-[(Imidazol-4-yl)methylene]-2-indolinone] | 50 | – | – | – |
| O=C1Nc2ccccc2C1=Cc1ccc(N2CCOCC2)cc1 [SU4981, 3-[4-(Morpholin-4-yl)benzylidenyl]-2-indolinone] | 10 | 0.6 | – | – |
| O=C1Nc2ccccc2C1=Cc1ccc(Br)cc1 [SU4942, 3-(4-Bromobenzylidenyl)-2-indolinone] | – | – | – | IC50 [2]: 4.6 µM; EpH4-VEGF % inhibition @ mg/kg (EpH4-VEGF; @ 25 mg/kg): 47% @ 25; EpH4-VEGF % inhibition @ mg/kg (EpH4-VEGF; @ 50 mg/kg): 46% @ 50 |
| COC(=O)CCc1c(C)c[nH]c1C=C1C(=O)Nc2ccccc21 [SU5407, 3-{[4-(2-methoxycarbonylethyl)-3-methylpyrrol-5-yl]methylene}-2-indolinone] | 70 | 39.8 | 35.5 | – |
| Cc1ccc(C=C2C(=O)Nc3ccccc32)s1 [SU5424, 3-[(2-Methylthien-5-yl)methylene]-2-indolinone] | – | 2.5 | – | EpH4-VEGF % inhibition @ mg/kg (EpH4-VEGF; @ 50 mg/kg): 45% @ 50 and 65% @ 50 |
| Cc1c(CCC(=O)O)c[nH]c1C=C1C(=O)Nc2ccccc21 [SU5402, 3-[(3-(2-carboxyethyl)-4-methylpyrrol-5-yl)methylene]-2-indolinone] | 40 | < 0.8 | 2 | – |
| Cc1cnc(C=C2C(=O)Nc3ccccc32)s1 [SU5469, 3-[(5-Methylthiazol-2-yl)methylene]-2-indolinone] | 15 | – | – | – |
| Cc1cc[nH]c1C=C1C(=O)Nc2ccccc21 [SU5404, 3-[(3-Methylpyrrol-2-yl)methylene]-2-indolinone] | 25 | < 0.8 | 31.1 | – |
| Cc1cc(C=C2C(=O)Nc3ccccc32)[nH]n1 [SU5472, 3-[(3-Methylpyrazol-5-yl)methylene]-2-indolinone] | – | 2 | 5 | – |
| COc1ccc(Br)cc1C=C1C(=O)Nc2ccccc21 [SU4796, 3-(3-bromo-6-methoxybenzylidenyl)-2-indolinone] | – | – | – | IC50 [2]: 35.8 µM; IC50 [1]: 30.7 µM |
| O=C1Nc2ccccc2C1=Cc1ccc(F)cc1 [SU5205, 3-(4-Fluorobenzylidenyl)-2-indolinone] | – | 5.1 | 11.8 | – |
| Cn1cccc1C=C1C(=O)Nc2ccccc21 [SU5464, 3-[(1-Methylpyrrol-2-yl)methylene]-2-indolinone] | – | 3.8 | 12.9 | – |
| O=C1Nc2ccccc2C1=Cc1cccn1-c1cc(Cl)cc(Cl)c1 [SU5461, 3-{[1-(3,5-Dichlorophenyl)pyrrol-2-yl]methylene}-2-indolinone] | – | < 0.07 | < 0.07 | – |
| CN(C)c1ccc(C=C2C(=O)Nc3ccc(Cl)cc32)cc1 [SU4967, 5-Chloro-3-(4-dimethylaminobenzylidenyl)-2-indolinone] | 4.9 | 34.3 | 16.3 | – |
| O=C1Nc2ccccc2C1=Cc1ccc(N2CCCC2)cc1 [SU5466, 3-[4-(Pyrrolidin-1-yl)benzylidenyl]-2-indolinone] | 15 | 1.3 | 3.2 | – |
| O=C1Nc2ccccc2C1=Cc1ccc([N+](=O)[O-])o1 [SU5432, 3-[(2-Nitrofuran-5-yl)methylene]-2-indolinone] | – | 0.16 | 0.14 | – |
| O=C1Nc2ccccc2C1=Cc1c(Br)cnn1Cc1ccc(Cl)cc1 [SU5475, 3-[(4-Bromo-1-(4-chlorobenzyl)pyrazol-5-yl)methylene]-2-indolinone] | 9 | – | – | – |
| O=C1Nc2ccccc2C1=Cc1ccc(Cl)c(Cl)c1 [SU5201, 3-(3,4-Dichlorobenzylidenyl)-2-indolinone] | – | – | – | IC50 [2]: 2.3 µM; IC50 [1]: 2.5 µM |
| O=C1Nc2ccccc2C1=Cc1ccc(O)cc1Cl [SU4932, 3-(2-chloro-4-hydroxybenzylidenyl)-2-indolinone] | – | 2.5 | 45.2 | EpH4-VEGF % inhibition @ mg/kg (EpH4-VEGF; @ 75 mg/kg): 42% @ 75; EpH4-VEGF % inhibition @ mg/kg (EpH4-VEGF; @ 50/50 mg/kg): 42% @ 50/50 |
| COc1cccc(C=C2C(=O)Nc3ccccc32)c1OC [SU4794, 3-(2,3-dimethoxybenzylidenyl)-2-indolinone] | – | 4.8 | 35.7 | – |
| CCc1c(C=C2C(=O)Nc3ccccc32)[nH]c(C(=O)O)c1C [SU5455, 3-[(5-Carboxy-3-ethyl-4-methylpyrrol-2-yl)methylene]-2-indolinone] | – | 20 | 20 | – |
| CCCCN(CCCC)c1ccc(C=C2C(=O)Nc3ccccc32)cc1 [SU4979, 3-(4-Di-n-butylaminobenzylidenyl)-2-indolinone] | – | 4.4 | 4.9 | – |
